Measurements as given in PMC9146228, “Bioactivity of Novel Pyrazole-Thiazolines Scaffolds against Trypanosoma cruzi: Computational Approaches and 3D Spheroid Model on Drug Discovery for Chagas Disease” (Pharmaceutics, 2022).
Like-named read-outs stand apart in the source and are kept apart here.

What was measured:
[1] = Cytotoxicity in vitro assay (CellTiter-Glo); assay type: cell-based; details: African green monkey, Vero cells, mean ± SD
Procedure: Vero cells, obtained from the Rio de Janeiro Cell Bank (BCRJ code 0245), were dissociated with trypsin–EDTA solution (0.025%), and maintained in RPMI 1640 medium supplemented with 10% fetal bovine serum (FBS) at 37 °C in a humidified atmosphere of 5% CO2.
The compound toxicity was evaluated in Vero cell cultures. Briefly, Vero cells were seeded in 96-well white culture plates at a density of 1.5 × 10^4 cells/well for 24 h at 37 °C and 5% CO2. Thereafter, the cell monolayers were washed with phosphate-buffered saline (PBS) and 200 μL of fresh medium with a serial dilution of the pyrazole-thiazoline derivatives and Bz (1.9–500 µM) added. The cell viability was determined by luminescent assay using the CellTiter-Glo Kit (Promega Corporation, Madison, WI, USA) based on the ATP level. After 72 h of treatment, 20 μL of CellTiter-Glo solution was added per well, and cultures were kept for 2 min under agitation. The luminescent signal was read on the GloMax reader (Promega Corporation, Madison, WI, USA). The concentration of compounds that reduced 50% of cell viability (CC50) was calculated by linear regression. At least three independent assays were performed in duplicate.

[2] = test system: T. cruzi (Dm28c-Luc) trypomastigotes; assay: microbe, parasite or virus in culture; assay type: cell-based, Trypanosoma cruzi; details: for IC50 / IC90: Trypanosoma cruzi, 24 h, Dm28c-Luc, mean ± SD; for IC50: read-out: Trypanocidal Activity Trypomastigotes IC50; for IC90: read-out: Trypanocidal Activity Trypomastigotes IC90; for Trypomastigotes SI (CC50 of Vero cells/IC50): selectivity index vs Vero cells
Procedure: The screening assays were performed with T. cruzi clone Dm28c (TcI) genetically modified to express luciferase gene (Dm28c-Luc), kindly provided by Dr. Cristina Henriques. Trypomastigotes were isolated from T. cruzi-infected Vero cell monolayers (10:1 parasites/host cell ratio). On the 4th day post-infection (dpi), free trypomastigotes in the culture supernatant were harvested, and the number of parasites/mL was quantified in a Neubauer chamber.
The trypanocidal activity of the pyrazole-thiazoline derivatives was evaluated against trypomastigote and intracellular amastigote forms of T. cruzi (Dm28c-Luc). Tissue-derived trypomastigotes (1 × 10^6 parasites/well) were incubated with pyrazole-thiazoline derivatives and Bz in different concentrations (0.41–100 µM) for 24 h at 37 °C in a humidified atmosphere and 5% CO2. The parasite viability was determined by the addition of luciferin (300 µg/mL), followed by luminescence detection on the GloMax microplate reader (Promega Corporation, Madison, WI, USA).
(§1) After 72 h of treatment, luciferin (300 µg/mL) was added to the culture, and the viability of the parasites was assessed by reading the luminescent signal on the GloMax reader (Promega Corporation, Madison, WI, USA). Controls were also performed in non-toxic concentrations of DMSO (≤ 1%). The concentration that reduces the number of viable parasites by 50% (IC50) or 90% (IC90) was calculated by linear regression. The selectivity index (SI) was calculated as CC50/IC50 for each parasite form.

[3] = test system: T. cruzi (Dm28c-Luc) intracellular amastigotes; assay: Trypanocidal activity against intracellular amastigotes in infected Vero cell monolayers; assay type: cell-based, Trypanosoma cruzi; details: for IC90: read-out: Trypanocidal Activity Intracellular Amastigotes IC90; for Intracellular Amastigotes SI (CC50 of Vero cells/IC50): selectivity index vs Vero cells
Procedure: The susceptibility of intracellular amastigotes to pyrazole-thiazoline derivatives (series 1 and 2) was evaluated using 24 h T. cruzi-infected Vero cell monolayers (10:1 parasite/host cell ratio). Then, the cultures were washed with PBS to remove non-internalized parasites, and 200 μL of fresh medium with a serial dilution of pyrazole-thiazoline derivatives and Bz (0.41–100 µM) was added for 72 h at 37 °C.
as §1

[4] = Trypanosoma cruzi, Vero, 72 h, Dm28c-Luc in Vero cells, 72 h, mean ± SD, read-out: Trypanocidal Activity Intracellular Amastigotes IC50
[5] = Trypanosoma cruzi, Vero, pIC50 = −log IC50, Dm28c-Luc clone, read-out: Intracellular Amastigotes pIC50 (converted)
[6] = Trypanosoma cruzi, Dm28c-Luc in Vero cells, 72 h, mean ± SD
[7] = Dm28c-Luc in Vero cells, 72 h, mean ± SD, read-out: Trypanocidal Activity Intracellular Amastigotes IC50

| Compound | melting point [°C] | CC50 at 72 h [1] [µM] | IC50 [2] [µM] | IC90 [2] [µM] | Trypomastigotes SI (CC50 of Vero cells/IC50) [2] | IC50 [3, 4] [µM] | IC50 [3, 5] [µM] | IC90 [3, 6] [µM] | Intracellular Amastigotes SI (CC50 of Vero cells/IC50) [3] | IC50 [3, 7] [µM] |
| --- | --- | --- | --- | --- | --- | --- | --- | --- | --- | --- |
| Nc1c(C2=NCCS2)cnn1-c1ccccc1 [Compound 1a, 2-(5-amino-1-phenyl-1H-pyrazol-4-yl)-4,5-dihydrothiazole] | 176 to 178 | 248 ± 22 | 66.4 ± 2.7 | > 100 | 3.7 | 80.7 ± 3.9 | 81.3 | > 100 | 3.1 | – |
| Nc1c(C2=NCCS2)cnn1-c1cccc(Cl)c1 [Compound 1b, 2-(5-amino-1-(3-chlorophenyl)-1H-pyrazol-4-yl)-4,5-dihydrothiazole] | 186 to 189 | > 500 | 96.9 ± 3.1 | > 100 | >5.2 | 95.7 ± 4.8 | 97.7 | > 100 | 5.2 | – |
| Nc1c(C2=NCCS2)cnn1-c1ccc(Cl)cc1Cl [Compound 1c, 2-(5-amino-1-(2,4-dichlorophenyl)-1H-pyrazol-4-yl)-4,5-dihydrothiazole] | 209 to 212 | > 50 | > 100 | > 100 | <5 | > 100 | > 100 | > 100 | <5 | – |
| Nc1c(C2=NCCS2)cnn1-c1cc(Cl)cc(Cl)c1 [Compound 1d, 2-(5-amino-1-(3,5-dichlorophenyl)-1H-pyrazol-4-yl)-4,5-dihydrothiazole] | 232 to 234 | 416 ± 34.6 | > 100 | > 100 | – | 63.2 ± 5.4 | 64.6 | > 100 | 6.6 | – |
| Nc1c(C2=NCCS2)cnn1-c1ccc(Cl)c(Cl)c1 [Compound 1e, 2-(5-amino-1-(3,4-dichlorophenyl)-1H-pyrazol-4-yl)-4,5-dihydrothiazole] | 279 to 282 | > 500 | > 100 | > 100 | <5 | > 100 | > 100 | > 100 | <5 | – |
| Nc1c(C2=NCCS2)cnn1-c1ccc(Cl)cc1 [Compound 1f, 2-(5-amino-1-(4-chlorophenyl)-1H-pyrazol-4-yl)-4,5-dihydrothiazole] | 283 to 285 | > 500 | 88.3 ± 7.1 | > 100 | – | > 100 | > 100 | > 100 | – | – |
| Nc1c(C2=NCCS2)cnn1-c1ccc(F)cc1 [Compound 1g, 2-(5-amino-1-(4-fluorophenyl)-1H-pyrazol-4-yl)-4,5-dihydrothiazole] | 244 to 246 | 483 ± 16.6 | > 100 | > 100 | <5 | 96.3 ± 2.7 | 97.7 | > 100 | 5.6 | – |
| Nc1c(C2=NCCS2)cnn1-c1cccc(F)c1 [Compound 1h, 2-(5-amino-1-(3-fluorophenyl)-1H-pyrazol-4-yl)-4,5-dihydrothiazole] | 230 to 232 | > 500 | > 100 | > 100 | <5 | > 100 | > 100 | > 100 | <5 | – |
| Nc1c(C2=NCCS2)cnn1-c1ccc(Br)cc1 [Compound 1i, 2-(5-amino-1-(4-bromophenyl)-1H-pyrazol-4-yl)-4,5-dihydrothiazole] | 282 to 284 | > 500 | 49.3 ± 4.7 | > 100 | >10.1 | > 100 | > 100 | > 100 | <5 | – |
| Nc1c(C2=NCCS2)cnn1-c1cccc(Br)c1 [Compound 1j, 2-(5-amino-1-(3-bromophenyl)-1H-pyrazol-4-yl)-4,5-dihydrothiazole] | 171 to 173 | > 500 | 52.3 ± 3.4 | > 100 | >9.5 | 26.6 ± 3.1 | 26.9 | > 100 | >18.7 | – |
| COc1ccc(-n2ncc(C3=NCCS3)c2N)cc1 [Compound 1k, 2-(5-amino-1-(4-methoxyphenyl)-1H-pyrazol-4-yl)-4,5-dihydrothiazole] | 164 to 166 | > 500 | 12 ± 3.5 | 93.4 ± 5.5 | >39.9 | 79.1 ± 4.4 | 79.4 | 97.3 ± 4.7 | >6.3 | – |
| Nc1c(C2=NCCS2)cnn1-c1cccc(Cl)c1Cl [Compound 1l, 2-(5-amino-1-(2,3-dichlorophenyl)-1H-pyrazol-4-yl)-4,5-dihydrothiazole] | 188 to 190 | > 500 | > 100 | > 100 | <5 | 11.1 ± 2 | 11.2 | > 100 | >44.9 | – |
| c1ccc(-n2cc(C3=NCCS3)cn2)cc1 [Compound 2a, 2-(1-phenyl-1H-pyrazol-4-yl)-4,5-dihydrothiazole] | 112 to 114 | 187 ± 12.7 | 1.1 ± 0.3 | 10.4 ± 1.1 | 166.8 | 10.7 ± 2.2 | 10.7 | 89 ± 2.6 | 17.4 | – |
| Clc1cccc(-n2cc(C3=NCCS3)cn2)c1 [Compound 2b, 2-(1-(3-chlorophenyl)-1H-pyrazol-4-yl)-4,5-dihydrothiazole] | 88 to 90 | 78.3 ± 7.7 | 0.8 ± 0.3 | 8.8 ± 1.3 | 100.2 | < 10 | ~10 | 31.9 ± 1.3 | 9.4 | 8.3 ± 1.9 |
| Clc1cc(Cl)cc(-n2cc(C3=NCCS3)cn2)c1 [Compound 2d, 2-(1-(3,5-dichlorophenyl)-1H-pyrazol-4-yl)-4,5-dihydrothiazole] | 134 to 136 | > 500 | > 100 | > 100 | <5 | > 100 | > 100 | > 100 | <5 | – |
| Clc1ccc(-n2cc(C3=NCCS3)cn2)cc1 [Compound 2f, 2-(1-(4-chlorophenyl)-1H-pyrazol-4-yl)-4,5-dihydrothiazole] | 130 to 133 | 91.7 ± 13.1 | 0.6 ± 0.3 | 13.3 ± 2.3 | 143.6 | < 10 | ~10 | 33.5 ± 4.4 | 12.0 | 7.6 ± 2.5 |
